Measurements as given in patent publication US11332459B2 (TEIJIN PHARMA LIMITED, priority 2017, dated 2022).

Molecular target: T1, human TRPC6 (Homo sapiens, UniProt Q9Y210)
T1 construct: expressed in transfected cells
T1 sequence (Q9Y210 1-931): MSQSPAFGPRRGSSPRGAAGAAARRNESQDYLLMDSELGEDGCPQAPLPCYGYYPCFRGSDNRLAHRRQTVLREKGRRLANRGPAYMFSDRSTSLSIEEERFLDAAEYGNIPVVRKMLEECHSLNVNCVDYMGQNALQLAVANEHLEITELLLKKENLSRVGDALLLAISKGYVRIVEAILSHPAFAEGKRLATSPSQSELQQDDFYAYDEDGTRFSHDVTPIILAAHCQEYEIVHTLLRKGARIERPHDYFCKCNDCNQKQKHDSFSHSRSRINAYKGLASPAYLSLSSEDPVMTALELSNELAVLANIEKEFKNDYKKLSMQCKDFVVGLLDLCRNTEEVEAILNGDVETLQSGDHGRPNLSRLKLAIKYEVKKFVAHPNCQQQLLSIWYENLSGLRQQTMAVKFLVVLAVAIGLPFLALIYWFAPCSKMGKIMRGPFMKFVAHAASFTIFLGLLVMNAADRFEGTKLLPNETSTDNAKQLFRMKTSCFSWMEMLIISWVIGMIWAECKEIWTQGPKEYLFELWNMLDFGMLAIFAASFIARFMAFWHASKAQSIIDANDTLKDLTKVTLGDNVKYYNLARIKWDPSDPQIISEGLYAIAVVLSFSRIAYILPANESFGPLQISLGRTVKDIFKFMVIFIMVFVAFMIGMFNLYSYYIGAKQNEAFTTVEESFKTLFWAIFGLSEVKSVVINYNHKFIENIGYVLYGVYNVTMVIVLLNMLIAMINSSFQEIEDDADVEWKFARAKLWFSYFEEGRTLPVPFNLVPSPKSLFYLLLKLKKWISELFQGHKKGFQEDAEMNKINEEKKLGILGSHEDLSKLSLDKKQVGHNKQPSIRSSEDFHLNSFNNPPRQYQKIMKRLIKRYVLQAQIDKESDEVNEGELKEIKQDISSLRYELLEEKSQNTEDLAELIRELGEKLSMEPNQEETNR
Assay: TRPC6 calcium flux assay (FLIPR, OAG-stimulated calcium influx)
Type: cell-based
Details: HEK293 cells stably transfected with human TRPC6, read-out: hTRPC6 Potency
Summary of the method: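 HEK293 cells stably expressing human TRPC6, loaded with calcium dye 90–120 min at RT, then given compound for 25 min before OAG (50 uM final, 0.5% DMSO) in HEPES buffer pH 7.2 with 2 mM CaCl2. Background-subtracted FLIPR peak over 180 s normalized to OAG vs buffer; IC50 from dose plot.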

SMILES | IC50 [nM]
C[C@@H](c1cc(Cl)ccc1Cl)n1c(N2CC[C@@H](F)[C@H](N)C2)nc2cc(F)c(F)cc21 [Example 329, (3R,4R)-1-(1-((1S)-1-(2,5-dichlorophenyl)ethyl)-5,6-difluoro-1H-benzimidazol-2-yl)-4-fluoro-3-piperidinamine] | > 3750
C[C@H](c1ccc(F)cc1F)n1c(N2CC[C@@H](F)[C@H](N)C2)nc2cc(F)c(F)cc21 [Example 330, (3R,4R)-1-(1-((1R)-1-(2,4-difluorophenyl)ethyl)-5,6-difluoro-1H-benzimidazol-2-yl)-4-fluoro-3-piperidinamine] | 669
C[C@@H](c1ccc(F)cc1F)n1c(N2CC[C@@H](F)[C@H](N)C2)nc2cc(F)c(F)cc21 [Example 331, (3R,4R)-1-(1-((1S)-1-(2,4-difluorophenyl)ethyl)-5,6-difluoro-1H-benzimidazol-2-yl)-4-fluoro-3-piperidinamine] | 204
C[C@H](c1ccc(Cl)c(Cl)c1)n1c(N2CC[C@@H](F)[C@H](N)C2)nc2cc(F)c(F)cc21 [Example 332, (3R,4R)-1-(1-((1R)-1-(3,4-dichlorophenyl)ethyl)-5,6-difluoro-1H-benzimidazol-2-yl)-4-fluoro-3-piperidinamine] | 3200
C[C@@H](c1ccc(Cl)c(Cl)c1)n1c(N2CC[C@@H](F)[C@H](N)C2)nc2cc(F)c(F)cc21 [Example 333, (3R,4R)-1-(1-((1S)-1-(3,4-dichlorophenyl)ethyl)-5,6-difluoro-1H-benzimidazol-2-yl)-4-fluoro-3-piperidinamine] | 3250
C[C@H](c1cc(F)ccc1F)n1c(N2CC[C@@H](F)[C@H](N)C2)nc2cc(F)c(F)cc21 [Example 334, (3R,4R)-1-(1-((1R)-(2,5-difluorophenyl)ethyl)-5,6-difluoro-1H-benzimidazol-2-yl)-4-fluoro-3-piperidinamine] | 3540
C[C@@H](c1cc(F)ccc1F)n1c(N2CC[C@@H](F)[C@H](N)C2)nc2cc(F)c(F)cc21 [Example 335, (3R,4R)-1-(1-((1S)-1-(2,5-difluorophenyl)ethyl)-5,6-difluoro-1H-benzimidazol-2-yl)-4-fluoro-3-piperidinamine] | > 3750
C[C@H](c1ccc(C(F)(F)F)cc1)n1c(N2CC[C@@H](F)[C@H](N)C2)nc2cc(F)c(F)cc21 [Example 336, (3R,4R)-1-(5,6-difluoro-1-((1R)-1-(4-(trifluoromethyl)phenyl)ethyl)-1H-benzimidazol-2-yl)-4-fluoro-3-piperidinamine] | > 3750
C[C@H](c1ccc(OC(F)(F)F)cc1)n1c(N2CC[C@@H](F)[C@H](N)C2)nc2cc(F)c(F)cc21 [Example 337, (3R,4R)-1-(5,6-difluoro-1-((1R)-1-(4-(trifluoromethoxy)phenyl)ethyl)-1H-benzimidazol-2-yl)-4-fluoro-3-piperidinamine] | > 3750
N[C@@H]1CN(c2nc3cc(F)c(F)cc3n2Cc2cc(Cl)ccc2OC(F)(F)F)CC[C@H]1F [Example 338, (3R,4R)-1-(1-(5-chloro-2-2-(trifluoromethoxy)benzyl)-5,6-difluoro-1H-benzimidazol-2-yl)-4-fluoro-3-piperidinamine] | > 3750
N[C@@H]1CN(c2nc3cc(F)c(F)cc3n2Cc2ccc(-n3cncn3)cc2)CC[C@H]1F [Example 339, (3R,4R)-1-(5,6-difluoro-1-(4-(1H-1,2,4-triazol-1-yl)benzyl)-1H-benzimidazol-2-yl)-4-fluoro-3-piperidinamine] | 3.23
N#Cc1cc(Cl)ccc1Cn1c(N2CC[C@@H](F)[C@H](N)C2)nc2cc(F)c(F)cc21 [Example 340, 2-((2-((3R,4R)-3-amino-4-fluoro-1-piperidinyl)-5,6-difluoro-1H-benzimidazol-1-yl)methyl)-5-chlorobenzonitrile] | 0.704
N[C@@H]1CN(c2nc3cc(F)c(F)cc3n2Cc2ccc(Cl)cc2Cl)CC[C@H]1F [Example 341, (3R,4R)-1-(1-(2,4-dichlorobenzyl)-5,6-difluoro-1H-benzimidazol-2-yl)-4-fluoro-3-piperidinamine] | 25.8
N#Cc1ccc(Cn2c(N3CC[C@@H](F)[C@H](N)C3)nc3cc(F)c(F)cc32)c(OC(F)F)c1 [Example 342, 4-((2-((3R,4R)-3-amino-4-fluoro-1-piperidinyl)-5,6-difluoro-1H-benzimidazol-1-yl)methyl)-3-(difluoromethoxy)benzo-nitrile] | 12.1
N[C@@H]1CN(c2nc3cc(F)c(F)cc3n2Cc2cc(Cl)ccc2Cl)CC[C@H]1F [Example 343, (3R,4R)-1-(1-(2,5-dichlorobenzyl)-5,6-difluoro-1H-benzimidazol-2-yl)-4-fluoro-3-piperidinamine] | 804
CC(F)(F)c1ccc(Cn2c(N3CC[C@@H](F)[C@H](N)C3)nc3cc(F)c(F)cc32)cc1 [Example 344, (3R,4R)-1-(1-(4-(1,1-difluoroethyl)benzyl)-5,6-difluoro-1H-benzimidazol-2-yl)-4-fluoro-3-piperidinamine] | 85.3
N#Cc1ccc(Cn2c(N3CC[C@@H](F)[C@H](N)C3)nc3cc(F)c(F)cc32)cc1Cl [Example 346, 4-((2-((3R,4R)-3-amino-4-fluoro-1-piperidinyl)-5,6-difluoro-1H-benzimidazol-1-yl)methyl)-2-chlorobenzonitrile] | 1.39
N#Cc1ccc(Cl)cc1Cn1c(N2CC[C@@H](F)[C@H](N)C2)nc2cc(F)c(F)cc21 [Example 347, 2-((2-((3R,4R)-3-amino-4-fluoro-1-piperidinyl)-5,6-difluoro-1H-benzimidazol-1-yl)methyl)-4-chlorobenzonitrile] | 1.07

Now from value to molecule:

IC50 [nM] | SMILES
493 | N[C@@H]1CN(c2nc3cc(F)c(F)cc3n2Cc2ccccc2OC(F)F)CC[C@H]1F [Example 348, (3R,4R)-1-(1-(2-(difluoromethoxy)benzyl)-5,6-difluoro-1H-benzimidazol-2-yl)-4-fluoro-3-piperidinamine]
215 | N[C@@H]1CN(c2nc3cc(F)c(F)cc3n2Cc2ccc(F)c(Cl)c2)CC[C@H]1F [Example 349, (3R,4R)-1-(1-(3-chloro-4-fluorobenzyl)-5,6-difluoro-1H-benzimidazol-2-yl)-4-fluoro-3-piperidinamine]
351 | COc1cc(Cl)ccc1Cn1c(N2CC[C@@H](F)[C@H](N)C2)nc2cc(F)c(F)cc21 [Example 350, (3R,4R)-1-(1-(4-chloro-2-methoxybenzyl)-5,6-difluoro-1H-benzimidazol-2-yl)-4-fluoro-3-piperidinamine]
10.3 | N[C@@H]1CN(c2nc3cc(F)c(F)cc3n2Cc2ccc(F)cc2F)CC[C@H]1F [Example 351, (3R,4R)-1-(1-(2,4-difluorobenzyl)-5,6-difluoro-1H-benzimidazol-2-yl)-4-fluoro-3-piperidinamine]
328 | N[C@@H]1CN(c2nc3cc(F)c(F)cc3n2Cc2ccccc2C(F)(F)F)CC[C@H]1F [Example 352, (3R,4R)-1-(5,6-difluoro-1-(2-(trifluoromethyl)benzyl)-1H-benzimidazol-2-yl)-4-fluoro-3-piperidinamine]
30.8 | N#Cc1ccccc1Cn1c(N2CC[C@@H](F)[C@H](N)C2)nc2cc(F)c(F)cc21 [Example 353, 2-((2-((3R,4R)-3-amino-4-fluoro-1-piperidinyl)-5,6-difluoro-1H-benzimidazol-1-yl)methyl)benzonitrile]
133 | N[C@@H]1CN(c2nc3cc(F)c(F)cc3n2Cc2ccccc2Cl)CC[C@H]1F [Example 354, (3R,4R)-1-(1-(2-chlorobenzyl)-5,6-difluoro-1H-benzimidazol-2-yl)-4-fluoro-3-piperidinamine]
37 | N[C@@H]1CN(c2nc3cc(F)c(F)cc3n2Cc2ccc(F)cc2Cl)CC[C@H]1F [Example 355, (3R,4R)-1-(1-(2-chloro-4-fluorobenzyl)-5,6-difluoro-1H-benzimidazol-2-yl)-4-fluoro-3-piperidinamine]
239 | N[C@@H]1CN(c2nc3cc(F)c(F)cc3n2Cc2ccc(F)cc2C(F)(F)F)CC[C@H]1F [Example 356, (3R,4R)-1-(5,6-difluoro-1-(4-fluoro-2-(trifluoromethyl)benzyl)-1H-benzimidazol-2-yl)-4-fluoro-3-piperidinamine]
24.5 | N[C@@H]1CN(c2nc3cc(F)c(F)cc3n2Cc2ccc(F)c(F)c2)CC[C@H]1F [Example 357, (3R,4R)-1-(1-(3,4-difluorobenzyl)-5,6-difluoro-1H-benzimidazol-2-yl)-4-fluoro-3-piperidinamine]
6.47 | N[C@@H]1CN(c2nc3cc(F)c(F)cc3n2Cc2ccc(Cl)cc2F)CC[C@H]1F [Example 358, (3R,4R)-1-(1-(4-chloro-2-fluorobenzyl)-5,6-difluoro-1H-benzimidazol-2-yl)-4-fluoro-3-piperidinamine]
